Measurements from patent publication US9815851B2, “Pyrrolo carboxamides as modulators of orphan nuclear receptor RAR-related orphan receptor-gamma (RORγ, NR1F3) activity and for the treatment of chronic inflammatory and autoimmune diseases” (PHENEX PHARMACEUTICALS AG, priority 2011, dated 2017).
Read-outs that look alike come from different tables or passages of the source.

Legend:
[1] = target: T1, RORγ ligand binding domain (LBD) (Homo sapiens, UniProt P51449); assay: TR-FRET Activity Assay (ligand sensing, RORγ-LBD / coactivator peptide interaction, LANCE); assay type: biochemical
T1 construct: made in house; host or cells: E. coli BL-21 (BL3), vector pDEST15
T1 sequence (P51449 269-508 limits assumed): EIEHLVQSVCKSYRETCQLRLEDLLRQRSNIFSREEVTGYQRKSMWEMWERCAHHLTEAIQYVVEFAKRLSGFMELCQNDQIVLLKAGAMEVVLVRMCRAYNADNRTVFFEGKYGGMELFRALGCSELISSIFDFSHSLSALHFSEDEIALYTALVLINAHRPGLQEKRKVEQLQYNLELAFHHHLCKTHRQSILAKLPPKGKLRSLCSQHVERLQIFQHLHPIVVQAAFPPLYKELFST

RORγ = target: T2, RORγ (UniProt P51449); assay: RORγ Gal4 Reporter Gene Assay in 293T cells (firefly and renilla luciferase); assay type: cell-based, human
T2 sequence (P51449 1-518): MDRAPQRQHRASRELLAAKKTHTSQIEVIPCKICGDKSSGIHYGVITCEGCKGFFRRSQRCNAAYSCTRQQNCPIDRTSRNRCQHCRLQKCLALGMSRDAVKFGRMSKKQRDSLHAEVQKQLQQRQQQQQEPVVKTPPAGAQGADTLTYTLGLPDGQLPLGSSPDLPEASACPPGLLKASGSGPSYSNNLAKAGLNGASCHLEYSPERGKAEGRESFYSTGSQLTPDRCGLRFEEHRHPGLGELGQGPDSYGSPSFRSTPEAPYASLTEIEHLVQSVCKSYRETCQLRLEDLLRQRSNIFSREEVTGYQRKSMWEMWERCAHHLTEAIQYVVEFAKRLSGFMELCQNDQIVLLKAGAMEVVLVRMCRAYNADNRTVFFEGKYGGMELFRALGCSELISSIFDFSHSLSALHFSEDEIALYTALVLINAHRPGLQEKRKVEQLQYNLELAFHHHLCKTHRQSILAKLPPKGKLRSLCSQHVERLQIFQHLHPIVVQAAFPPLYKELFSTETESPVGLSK

[2] = first value of the cell FRET/FF/REN, TR-FRET activity assay, read-out: pIC50 (FRET) (converted)
[3] = second value of the cell, Gal4 reporter gene assay in 293T cells, firefly luciferase
[4] = third value of the cell, Gal4 reporter gene assay in 293T cells, renilla normalised luciferase

SMILES	IC50 [1, 2] [nM]	pIC50 (FF) (RORγ; [3])	pIC50 (REN) (RORγ; [4])	IC50 [1] [nM]	pIC50 (FF) (RORγ)	pIC50 (REN) (RORγ)
Cc1c(C(=O)NC2CCOCC2)cc(-c2ccc(S(=O)(=O)NC(C)(C)C)c3c(F)cccc23)n1CC1CCCCC1 [17/363]	1000	7.4	7.5			
Cc1c(C(=O)NCC2CCOCC2)cc(-c2cc(C(C)(C)C)c3c(c2)C2(CCO3)CC2)n1CC1CCCCC1 [1/94]	501	7.4	7.3			
Cc1c(C(=O)NCC(C)(C)NS(C)(=O)=O)cc(-c2cc(C(C)(C)C)c3c(c2)C2(CCO3)CC2)n1CC1CCCCC1 [1/103]	398	7.3	7.3			
Cc1c(C(=O)NC2COC2)cc(-c2cc(C3(C)CC3)c3c(c2)C2(CCO3)CC2)n1CC1CCCCC1 [1/42]	251	7.5	7.6			
Cc1c(C(=O)NC2CC2)cc(-c2cc(C(C)(C)C)c3c(c2)C2(CCO3)CC2)n1CC1CCCCC1 [1/92]	200	7.0	6.9			
Cc1c(C(=O)NC2COC2)cc(-c2cc(C(C)(C)C)cc(C(C)(C)C)c2)n1C(C)C1CCCCC1 (stereo not drawn) [Example 1, 1-(1-Cyclohexylethyl)-5-(3,5-di-tert-butylphenyl)-2-methyl-N-(oxetan-3-yl)-1H-pyrrole-3-carboxamide]	316	6.8	6.9			
Cc1c(C(=O)NC2CCOCC2)cc(-c2cc(C(=O)NC(C)(C)C)cc(C(=O)NC(C)(C)C)c2)n1CC1CCCCC1 [17/75]				6310	5.2/5.8/5.8	5.2/5.8/5.8
COC1(c2cc(-c3cc(C(=O)NC4CCOCC4)c(C)n3CC3CCCCC3)ccc2S(=O)(=O)NC(C)(C)C)CC1 [17/164]	1260	6.4	6.5			
Cc1c(C(=O)NCCC(C)(C)C(=O)O)cc(-c2cc(C(C)(C)C)cc(C3(C)CC3)c2)n1CC1CCCCC1 [17/73]	1000	7.2	7.3			
CCn1cc(-c2ccc(-c3cc(C(=O)NC4CCOCC4)c(C)n3CC3CCCCC3)cc2C(C)(C)C)cn1 [26/3]	794	6.6	6.8			
Cc1c(C(=O)NC2CCOCC2)cc(-c2ccc(S(=O)(=O)NC(C)(C)C)c(Br)c2)n1CC1CCCCC1 [17/157]	398	7.0	7.1			
Cc1c(C(=O)NCC(C)(C)NS(=O)(=O)C2CC2)cc(-c2cc(C(C)(C)C)c3c(c2)C2(CCO3)CC2)n1CC1CCCCC1 [17/33]	631	7.1	7.2			
Cc1c(C(=O)NC2CCOCC2)cc(-c2ccc(S(=O)(=O)NC(C)(C)C)c(C(F)(F)F)c2)n1CC1(F)CCCCC1 [Example 28, 5-(4-(N-(tert-Butyl)sulfamoyl)-3-(trifluoromethyl)phenyl)-1-((1-fluorocyclohexyl)-methyl)-2-methyl-N-(tetrahydro-2H-pyran-4-yl)-1H-pyrrole-3-carboxamide]	1260	6.6	6.9			
Cc1cc(C(C)(C)C)cc(-c2cc(C(=O)N[C@H]3C[C@H](C(=O)O)C3)c(C)n2CC2CCCCC2)c1OC(F)F [17/194]	12600	6.4	6.5			
Cc1c(C(=O)N2CCOCC2)cc(-c2cc(C(C)(C)C)cc(C(C)(C)C)c2)n1CC1CCCCC1 [1/52]	158	6.4	6.5			
Cc1c(C(=O)NC2CCOCC2)cc(-c2ccc(-c3ccnn3C(C)C)c(C(F)(F)F)c2)n1CC1CCCCC1 [17/249]	501	6.6	6.7			

SMILES	IC50 [1, 2] [nM]	pIC50 (FF) (RORγ; [3])	pIC50 (REN) (RORγ; [4])	IC50 [1] [nM]	pIC50 (FF) (RORγ)	pIC50 (REN) (RORγ)
Cc1c(C(=O)NCCC(C)(C)C(=O)O)cc(-c2ccc(S(=O)(=O)NC(C)(C)C)c(C(C)(C)C)c2)n1CC1CCCCC1 [17/163]	1580	7.0	7.2			
Cc1c(C(=O)NC2COC2)cc(-c2cc(C(C)(C)C)cc(C(C)(C)C)c2)n1CC1CCCC(C)C1 (stereo not drawn) [1/119]				200	6.7/7.4/7.3	6.7/7.4/7.3
Cc1c(C(=O)NC2CCOCC2)cc(-c2ccc(S(=O)(=O)N[C@@H](C)C(F)(F)F)c(C(F)(F)F)c2)n1CC1CCCCC1 [17/141]	316	8.3	8.5			
CC(C)(C)NS(=O)(=O)c1ccc(-c2cc(C(=O)N[C@H]3C[C@H](C(=O)O)C3)c(F)n2CC2CCCCC2)cc1C(F)(F)F [20/7]	398	6.2	6.2			
Cc1c(C(=O)NC2COC2)cc(-c2ccc(C(=O)NC(C)(C)C)c(C(C)(C)C)c2)n1CC1CCCCC1 [1/30]	3980	6.4	6.2			
Cc1c(C(=O)N[C@H]2CCOC2)cc(-c2cc(C(C)(C)C)cc(C3(C)CC3)c2)n1CC1CCCCC1 [17/65]		7.7	7.7	200		
Cc1c(C(=O)NC2COC2)cc(-c2cc(C(=O)N(C)C(C)(C)C)cc(C(C)(C)C)c2)n1CC1CCCCC1 [15/4]				1580	5.8/7.3/7.3	5.8/7.3/7.3
Cc1c(C(=O)N[C@H]2C[C@H](C(=O)O)C2)cc(-c2cc(C3(C)CC3)nc(C(C)(C)C)n2)n1CC1CCCCC1 [17/311]	794	7.0	7.2			
Cc1c(C(=O)NCC2(C)COC2)cc(-c2cc(C(C)(C)C)c3c(c2)C2(CCO3)CC2)n1CC1CCCCC1 [1/101]	251	7.2	7.2			
Cc1c(C(=O)NC23CCC(C(=O)O)(CC2)C3)cc(-c2cc(C(C)(C)O)cc(C3(C)CC3)c2)n1CC1CCCCC1 [17/301]	2000	7.6	7.6			
Cc1c(C(=O)NCC2CCOCC2)cc(-c2ccc(S(=O)(=O)NC(C)(C)C)c(C(C)(C)C)c2)n1CC1CCCCC1 [1/10]				501	6.3/7.5/7.5	6.3/7.5/7.5
Cc1c(C(=O)N2CC3(CCOCC3)C2)cc(-c2ccc(S(=O)(=O)NC(C)(C)C)c(C(F)(F)F)c2)n1CC1CCCCC1 [17/211]	501	8.0	8.0			
Cc1c(C(=O)NC2CCOCC2)cc(-c2cc(C(C)(C)O)c3c(c2)C2(CCO3)CC2)n1CC1CCCCC1 [Example 31, 1-(Cyclohexylmethyl)-5-(8-(2-hydroxypropan-2-yl)spiro[chroman-4,1′-cyclopropan]-6-yl)-2-methyl-N-(tetrahydro-2H-pyran-4-yl)-1H-pyrrole-3-carboxamide]	1260	6.9	6.9			
Cc1c(C(=O)NCC(C)(C)c2noc(=O)[nH]2)cc(-c2cc(C(C)(C)O)cc(C3(C)CC3)c2)n1CC1CCCCC1 [17/310]	1000	7.4	7.6			
CCN(C(C)(C)C)S(=O)(=O)c1ccc(-c2cc(C(=O)NCC(C)(C)O)c(C)n2CC2CCCCC2)cc1C(C)(C)C [9/10]				316	6.5/7.7/7.2	6.5/7.7/7.2
Cc1c(C(=O)NC2CCOCC2)cc(-c2ccc(S(=O)(=O)NC(C)(C)C)c3cnccc23)n1CC1CCCCC1 [17/369]				1260	5.9/7.5/7.5	5.9/7.5/7.5
